Results reported in publication PMC8070004, “Isorhamnetin Ameliorates Dry Eye Disease via CFTR Activation in Mice” (International Journal of Molecular Sciences, 2021).

Columns and labels:
hERG potassium channel = molecular target: T1, hERG potassium channel (Homo sapiens, UniProt Q12809); assay: FluxOR potassium ion channel assay in HEK293T cells expressing hERG; format: cell-based; settings: 30 μM pretreated for 10 min
T1 construct: expressed in transfected cells; host or cells: HEK293 / HEK293T
T1 sequence (Q12809 whole entry): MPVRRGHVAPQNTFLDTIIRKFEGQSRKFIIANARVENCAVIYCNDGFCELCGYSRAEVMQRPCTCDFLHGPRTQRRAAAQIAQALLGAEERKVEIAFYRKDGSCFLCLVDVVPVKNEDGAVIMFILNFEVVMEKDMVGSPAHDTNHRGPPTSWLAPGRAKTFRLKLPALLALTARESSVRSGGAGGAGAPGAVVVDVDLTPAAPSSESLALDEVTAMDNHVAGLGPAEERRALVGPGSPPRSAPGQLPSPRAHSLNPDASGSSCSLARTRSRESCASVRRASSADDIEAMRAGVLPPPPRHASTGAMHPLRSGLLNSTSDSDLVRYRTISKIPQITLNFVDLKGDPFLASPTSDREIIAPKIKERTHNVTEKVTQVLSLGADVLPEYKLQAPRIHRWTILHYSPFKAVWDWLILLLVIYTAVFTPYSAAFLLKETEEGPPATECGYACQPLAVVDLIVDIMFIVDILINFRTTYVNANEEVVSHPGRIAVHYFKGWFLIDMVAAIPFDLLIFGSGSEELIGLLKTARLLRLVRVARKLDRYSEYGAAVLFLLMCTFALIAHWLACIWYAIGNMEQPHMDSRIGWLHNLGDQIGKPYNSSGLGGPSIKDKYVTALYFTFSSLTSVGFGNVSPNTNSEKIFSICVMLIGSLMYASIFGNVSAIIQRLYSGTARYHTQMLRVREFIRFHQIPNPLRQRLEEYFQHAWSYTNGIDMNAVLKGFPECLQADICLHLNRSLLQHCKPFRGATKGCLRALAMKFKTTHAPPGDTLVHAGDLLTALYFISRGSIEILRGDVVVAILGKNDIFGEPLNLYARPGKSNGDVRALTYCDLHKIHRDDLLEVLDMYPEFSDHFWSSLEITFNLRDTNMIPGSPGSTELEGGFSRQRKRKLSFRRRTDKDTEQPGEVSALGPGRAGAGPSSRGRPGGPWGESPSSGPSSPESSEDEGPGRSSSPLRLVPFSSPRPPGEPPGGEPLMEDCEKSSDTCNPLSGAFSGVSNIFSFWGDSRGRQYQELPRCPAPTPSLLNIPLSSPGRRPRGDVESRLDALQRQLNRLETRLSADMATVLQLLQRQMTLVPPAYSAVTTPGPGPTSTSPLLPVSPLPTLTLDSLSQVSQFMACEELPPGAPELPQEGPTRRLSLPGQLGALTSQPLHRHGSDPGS
Method: HEK293 cells stably expressing human Kv11.1 (hERG) were plated in 96-well plates. After 48 h, the cells were incubated at 28 °C for 4 h to enhance membrane expression of hERG. The culture medium was replaced with 80 μL/well of FluxOR (Invitrogen) loading buffer and incubated for 1 h at 37 °C in the dark. After removal of the loading buffer, 100 µL of assay buffer were added to each well. To measure the effect of isorhamnetin on hERG channels, the cells were pretreated with isorhamnetin for 10 min. FluxOR fluorescence (excitation/emission: 490/525 nm) was recorded for 4 s before addition of 20 μL of stimulus buffer containing thallium ions, and the fluorescence was monitored. FluxOR fluorescence was recorded and analyzed using FLUOstar Omega Microplate Reader (BMG Labtech) and MARS Data Analysis Software (BMG Labtech). All buffers were prepared according to the manufacturer’s instructions.

[1] = tested on: conjunctival epithelial (ConjE) cells; assay: MTS cell viability assay in ConjE cells; format: cell-based, human; settings: 48 h; isorhamnetin 30 μM, Triton X-100 0.01%
Method: Immortalized human CorE [47] and immortalized human ConjE (Innoprot, Bizkaia, Spain) cells were plated on 96-well microplates. After 24 h incubation, cells were treated with 30 μM isorhamnetin or 0.01% Triton X-100 and then they were incubated for two days. An equal amount of DMSO was added to the control. The culture medium and the compounds were changed every 12 h. To assess cell proliferation, after 48 h of incubation with the compound, the cells were reincubated with MTS for 1 h. The soluble formazan produced by cellular reduction of MTS was quantified by measuring the absorbance at 490 nm with Infinite M200 (Tecan, Grödig, Austria) microplate reader. MTS assay was done using CellTiter 96 AQueous One Solution Cell Proliferation Assay kit (Promega, Madison, WI, USA).

CD-1 mice = assay: Tear volume by phenol red thread tear test in normal CD-1 mice; format: in vivo, mouse; settings: single 2.5 μL ocular delivery, 30 µM isorhamnetin
Method: Tear volume was measured using phenol red threads (Zone-Quick, Oasis Medical, Glendora, CA, USA) by placing them in the lateral canthi of normal CD-1 or dry eye model-treated BL6 mice for 10 s using forceps. Tear volume was measured using a Vernier caliper as the length of thread wetting under a microscope. For normal CD-1 mice, serial measurements were done to evaluate compound pharmacodynamics compared to the vehicle after topical application of a single, 2.5-μL drop of compound formulations containing 20 μM forskolin, 30 μM isorhamnetin, or 20 μM CFTRinh-172 in PBS with 0.1% DMSO.

[2] = tested on: pro-inflammatory cytokine mRNA expression; assay: Real-time PCR of pro-inflammatory cytokines in cornea and conjunctiva of dry eye mice; format: in vivo, mouse
Method: Eight-week-old C57BL/6 mice were used for this experiment. Experimental dry eye was induced by subcutaneous injection of 0.5 mg/100 μL scopolamine hydrobromide (Sigma-Aldrich, St. Louis, MO, USA) three times a day with a standard desiccating environment created by placing the mice in a chamber with a continuous air flow (15 L/min) in a room at 25 °C with an ambient humidity of 12%. Fourteen days after the initiation of experimental dry eye, the mice were treated or not with 5-μL drop of ophthalmic formulation (30 μM isorhamnetin in PBS with 0.1% DMSO) or vehicle three times a day. Eight days after the initiation of the formulation treatment, scopolamine injection was stopped. Ten days after the initiation of the formulation treatment, measurement of tear volume, corneal disruption, and relative mRNA level was performed.
The mRNA expressions of IL-1β, IL-6, IL-8, TNF-α, IFN-γ, and MMP-9 in cornea and conjunctiva of the dry eye model-treated mice were measured by qPCR. RNA was isolated using TRIzol reagent (Invitrogen, Carlsbad, CA, USA), and 1 μg of RNA was used to synthesize complementary DNA (cDNA) using RNA to cDNA EcoDryTM premix (TaKaRa, Shiga, Japan) according to the manufacturer’s protocol. The relative mRNA levels were measured in ViiA7 (Applied Biosystems, Foster City, CA, USA) using SYBR Green PCR Master Mix (Applied Biosystems). The primer sequences used were as follows: GAPDH, sense (5-[…]-3) and antisense (5-[…]-3), size of PCR product 155 base pairs; IL-1β, sense (5-[…]-3) and antisense (5-[…]-3), size of PCR product 199 base pairs; IL-6, sense (5-[…]-3) and antisense (5-[…]-3), size of PCR product 131 base pairs; IL-8, sense (5-[…]-3) and antisense (5-[…]-3), size of PCR product 190 base pairs; TNF-α, sense (5-[…]-3) and antisense (5-[…]-3), size of PCR product 166 base pairs; IFN-γ, sense (5-[…]-3) and antisense (5- […]-3), size of PCR product 156 base pairs; and MMP-9, sense (5-[…]-3) and antisense (5-[…]-3), size of PCR product 190 base pairs. The mRNA levels of the cytokines and MMP-9 were normalized to GAPDH levels and the fold-change in gene expression was determined by using 2^-ΔΔCT method.

WT-CFTR = WT-CFTR (Homo sapiens, UniProt P13569); assay: Whole-cell patch clamp in CHO-K1 cells expressing WT-CFTR; format: cell-based; design: expressed in transfected cells; host or cells: CHO-K1; settings: 30 μM isorhamnetin; linear current/voltage relationship
Sequence of WT-CFTR (P13569 whole entry): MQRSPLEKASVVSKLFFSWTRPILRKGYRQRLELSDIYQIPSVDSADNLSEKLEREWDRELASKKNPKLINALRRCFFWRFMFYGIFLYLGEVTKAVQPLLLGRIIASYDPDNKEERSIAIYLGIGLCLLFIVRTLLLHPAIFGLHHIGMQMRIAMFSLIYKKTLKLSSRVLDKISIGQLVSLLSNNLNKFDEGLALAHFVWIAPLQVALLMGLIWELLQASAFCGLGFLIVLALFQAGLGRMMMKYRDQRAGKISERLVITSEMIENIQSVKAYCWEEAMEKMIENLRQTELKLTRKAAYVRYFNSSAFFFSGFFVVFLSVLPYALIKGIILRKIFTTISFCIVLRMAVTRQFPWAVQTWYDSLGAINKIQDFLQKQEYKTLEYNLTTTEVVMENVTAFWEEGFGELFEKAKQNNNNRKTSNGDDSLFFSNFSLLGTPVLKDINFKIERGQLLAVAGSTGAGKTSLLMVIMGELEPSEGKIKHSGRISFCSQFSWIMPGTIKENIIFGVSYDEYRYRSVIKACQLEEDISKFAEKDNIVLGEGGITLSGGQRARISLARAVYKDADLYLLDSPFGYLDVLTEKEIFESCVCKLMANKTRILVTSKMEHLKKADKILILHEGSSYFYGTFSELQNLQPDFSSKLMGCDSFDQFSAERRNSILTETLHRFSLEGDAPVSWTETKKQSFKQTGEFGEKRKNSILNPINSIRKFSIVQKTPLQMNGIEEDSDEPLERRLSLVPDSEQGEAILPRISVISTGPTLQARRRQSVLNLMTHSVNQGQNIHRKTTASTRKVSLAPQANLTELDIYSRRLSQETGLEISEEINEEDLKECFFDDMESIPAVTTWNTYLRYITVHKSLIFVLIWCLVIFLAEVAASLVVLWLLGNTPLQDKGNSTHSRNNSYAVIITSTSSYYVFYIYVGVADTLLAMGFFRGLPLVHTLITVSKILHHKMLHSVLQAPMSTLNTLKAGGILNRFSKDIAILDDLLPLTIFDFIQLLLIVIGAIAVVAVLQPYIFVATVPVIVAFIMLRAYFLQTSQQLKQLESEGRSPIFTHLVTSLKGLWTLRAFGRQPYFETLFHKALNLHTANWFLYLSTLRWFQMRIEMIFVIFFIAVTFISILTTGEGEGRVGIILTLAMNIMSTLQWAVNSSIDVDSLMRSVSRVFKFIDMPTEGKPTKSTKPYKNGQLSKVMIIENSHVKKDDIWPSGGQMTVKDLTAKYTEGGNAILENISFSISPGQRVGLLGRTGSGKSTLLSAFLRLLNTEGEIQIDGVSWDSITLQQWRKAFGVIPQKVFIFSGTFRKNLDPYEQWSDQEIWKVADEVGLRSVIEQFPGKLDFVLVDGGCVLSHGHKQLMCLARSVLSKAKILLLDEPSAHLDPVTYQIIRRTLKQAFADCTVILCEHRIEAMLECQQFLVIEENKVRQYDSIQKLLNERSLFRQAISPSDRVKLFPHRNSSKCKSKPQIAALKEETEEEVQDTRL
Method: Whole-cell, patch clamp recordings were performed on CFTR-expressing CHO cells. The bath solution contained (in mM) 140 NMDG-Cl, 1 CaCl2, 1 MgCl2, 10 glucose, and 10 HEPES (pH 7.4). The pipette solution contained (in mM) 130 CsCl, 0.5 EGTA, 1 MgCl2, 1 Tris-ATP, and 10 HEPES (pH 7.2). […] Seal resistances were between 3 and 10 GΩ. After establishing the whole-cell configuration, CFTR was activated by forskolin and/or isorhamnetin. […] Recordings were made at room temperature using an Axopatch-200B (Axon Instruments, San Jose, CA, USA). Currents were digitized with a Digidata 1440A converter (Axon Instruments), filtered at 5 kHz, and sampled at 1 kHz.

[3] = cornea of the dry eye mouse model

Structure (SMILES): COc1cc(-c2oc3cc(O)cc(O)c3c(=O)c2O)ccc1O [isorhamnetin]
- hERG channel activity (hERG potassium channel): did not affect
- cell viability (MTS), ConjE cells [1]: did not affect the cell viability
- tear volume (CD-1 mice): significantly increased
- IL-1β expression [2, 3]: significantly reduced
- IL-8 expression [2, 3]: significantly reduced
- TNF-α expression [2, 3]: significantly reduced
- mRNA expression of cytokines in cornea and conjunctiva ([2]; dry eye mice treated with isorhamnetin for 10 days): strongly reduced
- CFTR Cl- currents (whole-cell) (WT-CFTR): fully activated
